These molecules were tested on DU-145 (assay: Growth inhibition of human DU145 cells assessed as cell growth at 10 uM incubated for 48 hrs by sulforhodamine B assay relative to control). Conditions: DU-145, 48 h, read-out: Activity.
Type: functional

For O=C(Nc1cccc(-n2cc(-c3ccncc3)c(-c3cc(O)cc(Cl)c3)n2)c1)c1cc(C(F)(F)F)cc(C(F)(F)F)c1, which growth at 10 µM is on record?
Its growth at 10 µM is 62.1%.

Each molecule was assayed on MDA-MB-468 (assay: Growth inhibition of human MDA-MB-468 cells assessed as cell growth at 10 uM incubated for 48 hrs by sulforhodamine B assay relative to control). Conditions: MDA-MB-468, 48 h, read-out: Activity.
Type: functional

For O=C(Nc1cccc(-n2cc(-c3ccncc3)c(-c3cc(O)cc(Cl)c3)n2)c1)c1cc(C(F)(F)F)cc(C(F)(F)F)c1, which growth at 10 µM is on record?
Its growth at 10 µM is 31.2%.

The molecules below were run on NCI/ADR-RES (assay: Growth inhibition of human NCI/ADR-RES cells incubated for 48 hrs by sulforhodamine B assay). Conditions: read-out: GI50.
Type: functional, cell-based

With O=C(Nc1cccc(-n2cc(-c3ccncc3)c(-c3cc(O)cc(Cl)c3)n2)c1)c1cc(C(F)(F)F)cc(C(F)(F)F)c1 as the molecule, how does the GI50 read?
Its GI50 is 4.58 µM.

Same assay, conditions: read-out: LC50 (the source's name)

For O=C(Nc1cccc(-n2cc(-c3ccncc3)c(-c3cc(O)cc(Cl)c3)n2)c1)c1cc(C(F)(F)F)cc(C(F)(F)F)c1, which CC50 is on record?
The CC50 was over 100 µM.

Same assay, conditions: read-out: TGI

O=C(Nc1cccc(-n2cc(-c3ccncc3)c(-c3cc(O)cc(Cl)c3)n2)c1)c1cc(C(F)(F)F)cc(C(F)(F)F)c1 was tested. Which TGI did it give?
Its TGI is over 100 µM.

Same assay, conditions: read-out: pGI50 (converted)

O=C(Nc1cccc(-n2cc(-c3ccncc3)c(-c3cc(O)cc(Cl)c3)n2)c1)c1cc(C(F)(F)F)cc(C(F)(F)F)c1 was tested. Which GI50 did it give?
The GI50 was 4.57 µM.

Same assay, conditions: read-out: pLC50 (the source's name) (converted)

Which CC50 does the source give for O=C(Nc1cccc(-n2cc(-c3ccncc3)c(-c3cc(O)cc(Cl)c3)n2)c1)c1cc(C(F)(F)F)cc(C(F)(F)F)c1 here?
The CC50 was over 100 µM.

Same assay, conditions: read-out: pTGI (converted)

For O=C(Nc1cccc(-n2cc(-c3ccncc3)c(-c3cc(O)cc(Cl)c3)n2)c1)c1cc(C(F)(F)F)cc(C(F)(F)F)c1, which TGI is on record?
Its TGI is over 100 µM.

What follows are molecules tested on LOX IMVI (assay: Growth inhibition of human LOXIMVI cells assessed as cell growth at 0.01 uM incubated for 48 hrs by sulforhodamine B assay relative to control). Conditions: read-out: Activity.
Type: functional

O=C(Nc1cccc(-n2cc(-c3ccncc3)c(-c3cc(O)cc(Cl)c3)n2)c1)c1cc(C(F)(F)F)cc(C(F)(F)F)c1 was tested. Which growth at 0.01 µM did it give?
Its growth at 0.01 µM is 101%.

What follows are molecules tested on MOLT-4 (assay: Growth inhibition of human MOLT4 cells assessed as cell growth at 0.1 uM incubated for 48 hrs by sulforhodamine B assay relative to control). Conditions: MOLT-4, 48 h, read-out: Activity.
Type: functional

O=C(Nc1cccc(-n2cc(-c3ccncc3)c(-c3cc(O)cc(Cl)c3)n2)c1)c1cc(C(F)(F)F)cc(C(F)(F)F)c1 was tested. Which growth at 0.1 µM did it give?
Its growth at 0.1 µM is 89%.

The molecules below were run on SF-295 (assay: Growth inhibition of human SF295 cells assessed as cell growth at 0.1 uM incubated for 48 hrs by sulforhodamine B assay relative to control). Conditions: SF-295, 48 h, read-out: Activity.
Type: functional

O=C(Nc1cccc(-n2cc(-c3ccncc3)c(-c3cc(O)cc(Cl)c3)n2)c1)c1cc(C(F)(F)F)cc(C(F)(F)F)c1 was tested. Which growth at 0.1 µM did it give?
Its growth at 0.1 µM is 89%.

These molecules were tested on SK-MEL-5 (assay: Growth inhibition of human SK-MEL-5 cells assessed as cell growth at 0.1 uM incubated for 48 hrs by sulforhodamine B assay relative to control). Conditions: SK-MEL-5, 48 h, read-out: Activity.
Type: functional

For O=C(Nc1cccc(-n2cc(-c3ccncc3)c(-c3cc(O)cc(Cl)c3)n2)c1)c1cc(C(F)(F)F)cc(C(F)(F)F)c1, which growth at 0.1 µM is on record?
Its growth at 0.1 µM is 95%.

The molecules below were run on PC-3 (assay: Growth inhibition of human PC3 cells assessed as cell growth at 0.1 uM incubated for 48 hrs by sulforhodamine B assay relative to control). Conditions: PC-3, 48 h, read-out: Activity.
Type: functional

Which growth at 0.1 µM does the source give for O=C(Nc1cccc(-n2cc(-c3ccncc3)c(-c3cc(O)cc(Cl)c3)n2)c1)c1cc(C(F)(F)F)cc(C(F)(F)F)c1 here?
Its growth at 0.1 µM is 93%.

The molecules below were run on SK-MEL-5 (assay: Growth inhibition of human SK-MEL-5 cells assessed as cell growth at 1 uM incubated for 48 hrs by sulforhodamine B assay relative to control). Conditions: SK-MEL-5, 48 h, read-out: Activity.
Type: functional

O=C(Nc1cccc(-n2cc(-c3ccncc3)c(-c3cc(O)cc(Cl)c3)n2)c1)c1cc(C(F)(F)F)cc(C(F)(F)F)c1 was tested. Which growth at 1 µM did it give?
Its growth at 1 µM is 90%.

These molecules were tested on OVCAR-3 (assay: Growth inhibition of human OVCAR3 cells assessed as cell growth at 1 uM incubated for 48 hrs by sulforhodamine B assay relative to control). Conditions: OVCAR-3, 48 h, read-out: Activity.
Type: functional

How did the growth at 1 µM turn out when O=C(Nc1cccc(-n2cc(-c3ccncc3)c(-c3cc(O)cc(Cl)c3)n2)c1)c1cc(C(F)(F)F)cc(C(F)(F)F)c1 was run?
Its growth at 1 µM is 96%.

The molecules below were run on OVCAR-5 (assay: Growth inhibition of human OVCAR5 cells assessed as cell growth at 1 uM incubated for 48 hrs by sulforhodamine B assay relative to control). Conditions: OVCAR-5, 48 h, read-out: Activity.
Type: functional

For O=C(Nc1cccc(-n2cc(-c3ccncc3)c(-c3cc(O)cc(Cl)c3)n2)c1)c1cc(C(F)(F)F)cc(C(F)(F)F)c1, which growth at 1 µM is on record?
The growth at 1 µM was 99%.

Each molecule was assayed on A549 (assay: Growth inhibition of human A549/ATCC cells assessed as cell growth at 100 uM incubated for 48 hrs by sulforhodamine B assay relative to control). Conditions: A549, 48 h, read-out: Activity.
Type: functional

With O=C(Nc1cccc(-n2cc(-c3ccncc3)c(-c3cc(O)cc(Cl)c3)n2)c1)c1cc(C(F)(F)F)cc(C(F)(F)F)c1 as the molecule, how does the growth at 100 µM read?
Its growth at 100 µM is 4%.

These molecules were tested on HT-29 (assay: Growth inhibition of human HT-29 cells assessed as cell growth at 100 uM incubated for 48 hrs by sulforhodamine B assay relative to control). Conditions: HT-29, 48 h, read-out: Activity.
Type: functional

For O=C(Nc1cccc(-n2cc(-c3ccncc3)c(-c3cc(O)cc(Cl)c3)n2)c1)c1cc(C(F)(F)F)cc(C(F)(F)F)c1, which growth at 100 µM is on record?
Its growth at 100 µM is -5%.

The molecules below were run on DU-145 (assay: Growth inhibition of human DU145 cells assessed as cell growth at 100 uM incubated for 48 hrs by sulforhodamine B assay relative to control). Conditions: DU-145, 48 h, read-out: Activity.
Type: functional

O=C(Nc1cccc(-n2cc(-c3ccncc3)c(-c3cc(O)cc(Cl)c3)n2)c1)c1cc(C(F)(F)F)cc(C(F)(F)F)c1 was tested. Which growth at 100 µM did it give?
Its growth at 100 µM is 23%.

Source: ChEMBL document CHEMBL4308841, “Synthesis, in vitro antiproliferative activity, and kinase inhibitory effects of pyrazole-containing diarylureas and diarylamides” (Eur J Med Chem, 2018)
